The values that follow come from patent publication US20220349825A1, “METHOD AND DEVICE FOR MEASURING CELL CONTRACTILITY” (THE ROYAL INSTITUTION FOR THE ADVANCEMENT OF …, priority 2021, published 2022).

The subject of the test is NIH-3T3 fibroblast cells. In words: time-dependent coverage-based (PaCS) measurement of cellular forces of fibroblasts on square patterns on 12 kPa PDMS, compared with TFM. Type of test: cell-based, mouse. The conditions noted are these: 2 μM Cytochalasin D at end of 18 hours measurement; square patterns ~2400 μm^2; 12 kPa PDMS substrate. Here is the method: The ability of the coverage-based technique to resolve time-dependent work was further tested. Fibroblast cellular forces on square patterns (˜2400 μm^2) on PDMS substrates (12 kPa) for 18 hours were measured; to further test the sensitivity of this technique the cellular forces was inhibited by depolymerizing actin using Cytochalasin D (Cyto D) in the last few hours of measurement. Using time-dependent coverage-based technique, cellular forces with time was measured when compared to TFM measurements, even after the Cyto D treatment, as presented in FIGS. 9c and 9d. […] Also the low strain energy values of ˜0.1 pJ indicate minimum resolution of the measurement on 12 kPa PDMS substrate. […]
After 16-18 hours of cell seeding, cells were stained with cell tracker green CMFDA (Thermofisher) to detect cell boundaries, and the plates were transferred to a lab-built heated stage perfused with 5% CO2 and mounted on a confocal microscope (Leica TCS SP8 with a 10×0.4 NA objective). With this setup, cells were imaged with transmission and fluorescence microscopy for extended periods, while maintaining a controlled culture environment
In PaCS, cells are confined on adhesive micropatterns of known area on linearly elastic silicone substrates. […] First, the deformed and undeformed pattern area are measured by thresholding the fluorescent pattern images. […]

For `C=C1[C@@H](C)[C@H]2[C@H](Cc3ccccc3)NC(=O)[C@]23[C@H](OC(C)=O)/C=C/[C@@](C)(O)C(=O)[C@@H](C)C/C=C/[C@H]3[C@@H]1O` [Cytochalasin D], the “cellular force (contractility) after drug treatment” value is “decreased cellular force” and the “pattern area after drug treatment” value is on record as “increased pattern area”.
